Molecular target: T1, human recombinant PARP1 (Homo sapiens, UniProt P09874)
T1 construct: purchased Trevigen 4677-096-K
Assay: PARP inhibitory activity measurement test (Universal Colorimetric PARP Assay kit, Trevigen)
Type: biochemical
Details: compound concentration: 10 μM, read-out: PARP1 inhibition rate (%)
Procedure: For evaluating PARP inhibitory activity of the present compound, inhibitory activity of each test compound against human recombinant PARP 1 was measured using Universal Colorimetric PARP Assay kit with Histone-Coated Strip Wells (Cat No.: 4677-096-K) available from Trevigen. The test was conducted according to the procedure in the instruction attached to this kit. The concrete operation will be described below.
After dissolving the test compound in dimethyl sulfoxide, the solution was diluted with a PARP buffer attached to the kit to prepare a 50 μM test compound solution.
In each well of a histone-coated 96-well plate, 10 μL of the test compound solution (50 μM), 15 μL of human recombinant PARP1 (33.3 Unit/mL) and 25 μL of PARP cocktail (containing activated DNA and biotinated NAD) were added, and incubated at room temperature for 1 hour (final reaction amount: 50 μL). Each well was washed twice with 200 μL of 0.1% Triton-X-containing Dulbecco's phosphate buffer, and further washed twice with 200 μL of Dulbecco's phosphate buffer, and then 50 μL of Strep-HRP was added, followed by incubation at room temperature for 1 hour. Each well was washed twice with 200 μL of 0.1% Triton-X-containing Dulbecco's phosphate buffer, and further washed twice with 200 μL of Dulbecco's phosphate buffer, and then 50 μL of TACS-Sapphire coloriometric substrate was added, followed by incubation at room temperature for 15 minutes. After stopping the reaction by adding 50 μL of 0.2 M HCl, absorbance at 450 nm (Abs 450) was measured by a microplate reader. The number of examples in each group was 1 to 2.
Using a well into which dimethyl sulfoxide and a PARP buffer were added in place of the test compound solution and human recombinant PARP1, the above operation was conducted as a negative control.
Using a well into which a PARP buffer containing dimethyl sulfoxide was added in place of the test compound solution, the above operation was conducted as a positive control.
PARP1 inhibition rate (%) was calculated according to the following Formula 1. PARP1 inhibition rate(%)=(AbsB−AbsX)/(AbsB−AbsA)×100 [Formula 1]
AbsA: absorbance of negative control (Abs 450)
AbsB: absorbance of positive control (Abs 450)
AbsX: absorbance of test compound-treated group (Abs 450)

T1 sequence (P09874 whole entry): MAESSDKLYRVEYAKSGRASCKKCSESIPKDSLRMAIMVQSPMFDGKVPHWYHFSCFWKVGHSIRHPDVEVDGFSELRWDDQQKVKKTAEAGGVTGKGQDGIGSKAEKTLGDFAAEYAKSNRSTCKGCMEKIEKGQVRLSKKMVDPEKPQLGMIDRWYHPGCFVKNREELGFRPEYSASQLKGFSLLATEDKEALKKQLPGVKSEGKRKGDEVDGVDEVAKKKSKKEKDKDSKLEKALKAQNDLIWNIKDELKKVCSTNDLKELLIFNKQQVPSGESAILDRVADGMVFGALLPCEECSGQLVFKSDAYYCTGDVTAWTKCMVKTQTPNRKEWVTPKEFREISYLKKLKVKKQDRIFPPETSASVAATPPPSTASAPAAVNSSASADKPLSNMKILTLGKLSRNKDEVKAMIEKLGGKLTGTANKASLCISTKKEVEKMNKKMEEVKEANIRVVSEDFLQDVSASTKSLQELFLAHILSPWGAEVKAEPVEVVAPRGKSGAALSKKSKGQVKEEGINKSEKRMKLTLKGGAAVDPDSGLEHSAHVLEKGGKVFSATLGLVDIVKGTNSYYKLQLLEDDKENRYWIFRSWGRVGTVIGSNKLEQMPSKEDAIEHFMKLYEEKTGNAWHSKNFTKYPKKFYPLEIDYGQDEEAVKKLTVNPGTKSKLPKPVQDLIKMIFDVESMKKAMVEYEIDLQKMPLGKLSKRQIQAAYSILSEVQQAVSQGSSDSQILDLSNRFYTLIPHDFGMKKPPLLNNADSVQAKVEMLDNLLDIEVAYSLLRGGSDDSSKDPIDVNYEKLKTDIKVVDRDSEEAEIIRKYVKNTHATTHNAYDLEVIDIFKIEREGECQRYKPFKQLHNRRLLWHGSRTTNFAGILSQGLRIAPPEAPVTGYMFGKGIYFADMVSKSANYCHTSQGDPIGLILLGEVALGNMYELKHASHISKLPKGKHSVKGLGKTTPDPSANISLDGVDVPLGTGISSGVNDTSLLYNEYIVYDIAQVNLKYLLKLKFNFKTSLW

| Structure (SMILES) | inhibition at 10 µM |
| --- | --- |
| O=C(Nc1ccccc1)c1cc2[nH]c(=O)c3ccccc3n2c1 [Compound 1-49, 2-(Phenylaminocarbonyl)pyrrolo[1,2-a]quinazolin-5(4H)-one] | 36% |
| CN1CCCN(C(=O)c2cc3[nH]c(=O)c4ccccc4n3c2)CC1 [Compound 1-50, 2-(4-Methylhomopiperazine-1-carbonyl)pyrrolo[1,2-a]quinazolin-5(4H)-one] | 92% |
| CN(C)CCNC(=O)c1cc2[nH]c(=O)c3ccccc3n2c1 [Compound 1-51, 2-[(2-Dimethylaminoethyl)aminocarbonyl]pyrrolo[1,2-a]quinazolin-5(4H)-one] | 92% |
| O=C(NCc1ccncc1)c1cc2[nH]c(=O)c3ccccc3n2c1 [Compound 1-52, 2-[(Pyridin-4-ylmethyl)aminocarbonyl]pyrrolo[1,2-a]quinazolin-5(4H)-one] | 94% |
| O=C(NCCN1CCOCC1)c1cc2[nH]c(=O)c3ccccc3n2c1 [Compound 1-53, 2-[2-(Morpholin-4-ylethyl)aminocarbonyl]pyrrolo[1,2-a]quinazolin-5(4H)-one] | 96% |
| O=C(NCc1ccccc1)c1cc2[nH]c(=O)c3ccccc3n2c1 [Compound 1-54, 2-(Benzylaminocarbonyl)pyrrolo[1,2-a]quinazolin-5(4H)-one] | 81% |
| O=C(NCCc1ccccc1)c1cc2[nH]c(=O)c3ccccc3n2c1 [Compound 1-55, 2-(2-Phenylethylaminocarbonyl)pyrrolo[1,2-a]quinazolin-5(4H)-one] | 81% |
| O=C(NCCCc1ccccc1)c1cc2[nH]c(=O)c3ccccc3n2c1 [Compound 1-56, 2-(3-Phenylpropylaminocarbonyl)pyrrolo[1,2-a]quinazolin-5(4H)-one] | 83% |
| O=c1[nH]c2cc(CN3CCN(Cc4ccc(Cl)cc4)CC3)cn2c2ccccc12 [Compound 2-2, 2-[4-(4-Chlorobenzyl)piperazin-1-ylmethyl]pyrrolo[1,2-a]quinazolin-5(4H)-one] | 78% |
| O=c1[nH]c2cc(CN3CCN(c4nccs4)CC3)cn2c2ccccc12 [Compound 2-3, 2-[4-(Thiazol-2-yl)piperazin-1-ylmethyl]pyrrolo[1,2-a]quinazolin-5(4H)-one] | 99% |
| O=c1[nH]c2cc(CN3CCN(c4ccccc4)CC3)cn2c2ccccc12 [Compound 2-4, 2-(4-Phenylpiperazin-1-ylmethyl)pyrrolo[1,2-a]quinazolin-5(4H)-one] | 100% |
| O=c1[nH]c2cc(CN3CC=C(c4ccccc4)CC3)cn2c2ccccc12 [Compound 2-6, 2-(4-Phenyl-1,2,3,6-tetrahydropyridin-1-ylmethyl)pyrrolo[1,2-a]quinazolin-5(4H)-one] | 100% |
| CN1CCN(Cc2cc3[nH]c(=O)c4ccccc4n3c2)CC1 [Compound 2-10, 2-(4-Methylpiperazin-1-ylmethyl)pyrrolo[1,2-a]quinazolin-5(4H)-one] | 98% |
| O=c1[nH]c2cc(CN3CCN(Cc4ccccc4)CC3)cn2c2ccccc12 [Compound 2-11, 2-(4-Benzylpiperazin-1-ylmethyl)pyrrolo[1,2-a]quinazolin-5(4H)-one] | 99% |
| O=c1[nH]c2cc(CN3CCN(Cc4ccc(F)cc4)CC3)cn2c2ccccc12 [Compound 2-13, 2-[4-(4-Fluorobenzyl)piperazin-1-ylmethyl]pyrrolo[1,2-a]quinazolin-5(4H)-one] | 96% |
| O=c1[nH]c2cc(CN3CCN(c4cccc(F)c4)CC3)cn2c2ccccc12 [Compound 2-15, 2-[4-(3-Fluorophenyl)piperazin-1-ylmethyl]pyrrolo[1,2-a]quinazolin-5(4H)-one] | 98% |
| O=c1[nH]c2cc(CN3CCN(c4cccnc4)CC3)cn2c2ccccc12 [Compound 2-18, 2-[4-(Pyridine-3-yl)piperazin-1-ylmethyl]pyrrolo[1,2-a]quinazolin-5(4H)-one] | 95% |
| CN(CCCc1ccccc1)Cc1cc2[nH]c(=O)c3ccccc3n2c1 [Compound 2-19, 2-[N-Methyl-N-(3-phenylpropyl)aminomethyl]pyrrolo[1,2-a]quinazolin-5(4H)-one] | 93% |
| O=c1[nH]c2cc(CN3CCN(c4ccc(Br)cc4)CC3)cn2c2ccccc12 [Compound 2-20, 2-[4-(4-Bromophenyl)piperazin-1-ylmethyl]pyrrolo[1,2-a]quinazolin-5(4H)-one] | 90% |
| O=c1[nH]c2cc(CN3CCc4ccccc4C3)cn2c2ccccc12 [Compound 2-21, 2-(1,2,3,4-Tetrahydroisoquinolin-2(1H)-ylmethyl)pyrrolo[1,2-a]quinazolin-5(4H)-one] | 65% |
| CN(C)C1CCN(Cc2cc3[nH]c(=O)c4ccccc4n3c2)CC1 [Compound 2-22, 2-(4-Dimethylaminopiperidin-1-ylmethyl)pyrrolo[1,2-a]quinazolin-5(4H)-one] | 97% |

The next lines start with the values.

| inhibition at 10 µM | Structure (SMILES) |
| --- | --- |
| 100% | O=c1[nH]c2cc(CN3CCN(c4ccncc4)CC3)cn2c2ccccc12 [Compound 2-23, 2-[4-(Pyridin-4-yl)piperazin-1-ylmethyl]pyrrolo[1,2-a]quinazolin-5(4H)-one] |
| 99% | CC1CN(c2ccc(F)cc2)CCN1Cc1cc2[nH]c(=O)c3ccccc3n2c1 (stereo not shown) [Compound 2-24, 2-[4-(4-Fluorophenyl)-2-methylpiperazin-1-ylmethyl]pyrrolo[1,2-a]quinazolin-5(4H)-one] |
| 100% | COc1ccccc1N1CCN(Cc2cc3[nH]c(=O)c4ccccc4n3c2)CC1 [Compound 2-25, 2-[4-(2-Methoxyphenyl)piperazin-1-ylmethyl]pyrrolo[1,2-a]quinazolin-5(4H)-one] |
| 78% | COc1cccc(N2CCN(Cc3cc4[nH]c(=O)c5ccccc5n4c3)CC2)c1 [Compound 2-26, 2-[4-(3-Methoxyphenyl)piperazin-1-ylmethyl]pyrrolo[1,2-a]quinazolin-5(4H)-one] |
| 99% | O=c1[nH]c2cc(CN3CCN(C4CCCCC4)CC3)cn2c2ccccc12 [Compound 2-27, 2-(4-Cyclohexylpiperazin-1-ylmethyl)pyrrolo[1,2-a]quinazolin-5(4H)-one] |
| 99% | O=c1[nH]c2cc(CN3CCN(CC4CC4)CC3)cn2c2ccccc12 [Compound 2-28, 2-(4-Cyclopropylmethylpiperazin-1-ylmethyl)pyrrolo[1,2-a]quinazolin-5(4H)-one] |
| 40% | O=c1[nH]c2cc(CN3CCN(c4ccc(C(F)(F)F)cc4)CC3)cn2c2ccccc12 [Compound 2-29, 2-[4-(4-Trifluoromethylphenyl)piperazin-1-ylmethyl]pyrrolo[1,2-a]quinazolin-5(4H)-one] |
| 66% | O=c1[nH]c2cc(CN3CCCC(c4ccccc4)C3)cn2c2ccccc12 (stereo not shown) [Compound 2-31, 2-(3-Phenylpiperidin-1-ylmethyl)pyrrolo[1,2-a]quinazolin-5(4H)-one] |
| 97% | Cc1cccc(N2CCN(Cc3cc4[nH]c(=O)c5ccccc5n4c3)CC2)c1 [Compound 2-32, 2-[4-(3-Methylphenyl)piperazin-1-ylmethyl]pyrrolo[1,2-a]quinazolin-5(4H)-one] |
| 96% | O=c1[nH]c2cc(CN3CCC(N4CCCCC4)CC3)cn2c2ccccc12 [Compound 2-33, 2-[4-(Piperidin-1-yl)piperidin-1-ylmethyl]pyrrolo[1,2-a]quinazolin-5(4H)-one] |

Reference: patent US9062061B2, “Compound having PARP inhibitory activity” (SANTEN PHARMACEUTICAL CO., LTD., priority 2011, dated 2015)
